Columns and labels:
[1] = Metabolism of the compound in human plasma (hydrolysis to the active metabolite); type: in vitro ADME; conditions: in vitro human plasma; for Remaining Amount of the Prodrug Compound (%): 37° C., 200 rpm, time point of the tabulated value not stated (samples at 0, 15, 30, 60 and 120 min)
Description: (1) 40 mM pure acetonitrile stock solutions of Compound 1, Compound 7 and Compound a were prepared;
(2) the stock solution (25 μL) of Compound a was mixed with 1 mL of human plasma and vortexed for 30 s, a sample (200 μL) was added to 800 μL of acetonitrile to precipitate proteins and vortexed for 1 min, and then the reaction was stopped as a control of an active metabolite of loxoprofen; and 40 mM stock solutions of Compound 1 and Compound 7 were diluted 200 times as prodrug controls;
(4) the pure acetonitrile stock solution (100 μL) of each of Compound 1 and Compound 7 was mixed with 4 mL of human plasma, vortexed for 30 s, and oscillated at 200 rpm in an oscillating water bath heater with a constant temperature of 37° C.;
(5) samples (200 μL) were taken at different time points (0, 15, 30, 60 and 120 min) with three samples at each time point, added with 800 μL of acetonitrile to precipitate proteins and vortexed for 1 min, and then the reaction was stopped; and a blank plasma control was obtained in the same manner;
(6) the samples were centrifuged at 12000 rpm for 10 min at 4° C., the supernatant was taken and injected at a volume of 30 μL (through a filter membrane), and changes of a peak area were recorded;
(7) hydrolysis rates of Compound 1 and Compound 7 were observed and analyzed.

[2] = Solubility of the active metabolite of loxoprofen; type: physicochemical
[3] = Physicochemical stability of the active metabolite of loxoprofen; conditions: high temperature, high humidity, cold white fluorescent lamp and ultraviolet lamp

Row | SMILES | transformation into the active metabolite [1] | Remaining Amount of the Prodrug Compound (%) [1] | metabolic rate ([1]; compared with Compound 1) | solubility ([2]; in a slightly alkaline aqueous solution) | solubility ([2]; in pure water) | physicochemical stability [3]
1 | CC(=O)OC(C)OC(=O)[C@@H](C)c1ccc(C[C@H]2CCC[C@@H]2O)cc1 (some centres unmarked) [Compound 7] | rapidly transformed into the active metabolite | 21.41% ± 0.49% | slightly faster than that of Compound 1 without a significant difference |  |  | 
2 | CCOC(=O)OC(C)OC(=O)[C@@H](C)c1ccc(C[C@H]2CCC[C@@H]2O)cc1 (some centres unmarked) [Compound 1] | rapidly transformed into the active metabolite | 35.41% ± 1.83% |  |  |  | 
3 | C[C@H](C(=O)O)c1ccc(C[C@H]2CCC[C@@H]2O)cc1 [Compound a, (S)-2-(4-(((1R, 2S)-2-hydroxycyclopentyl)methyl)phenyl)propionic acid] |  |  |  | soluble | low solubility | poor physicochemical stability
